Assay results taken from US20180149652A1, “ELECTRICAL CELL-SUBSTRATE IMPEDANCE SENSOR (ECIS)” (priority 2018, published 2018).

Assays:
MCF-7 cells = experiment: SiNW-ECIS impedance and capacitance response of MCF-7 cells to antitubulin drugs; format: cell-based, human; conditions: MCF-7 on SiNW electrodes, PTX 0.1 nano-moles per liter; for normalized capacitance change versus control sample / normalized impedance change versus control sample: 2 hours (T1) after drug incubation; for normalized capacitance change versus control sample / normalized impedance change versus control sample / change in electrical impedance with respect to control sample / norm of capacitive changes, control sample more than drug value / change of norm in impedance of treated cells, T1 vs. T2: ABZ 2.1 nano-moles per liter; for change in electrical impedance with respect to control sample / norm of capacitive changes, control sample more than drug value: 6 hours (T2) after drug incubation
Protocol: In this example, the diagnostic response of cells membrane to extremely low dose of antitubulin drugs is investigated. Initially, MCF-7 cell lines, isolated from grade I human breast tumors, were obtained from the National Cell Bank of Iran (Pasteur Institute). Then, cells were maintained in a CO2 incubator (37° C., 5% CO2) in RPMI-1640 medium supplemented with 5% fetal bovine serum, and 1% penicillin/streptomycin. The fresh medium was replaced every other day. Then, the cultured cells were dropped on the surface of the SiNW-ECIS, designed and fabricated pursuant to teachings of the present application. Prior to each experiment, cells were trypsinized to be detached from the substrate and resuspended on the SiNW surface. To minimize the effect of trypsinization, the procedure may last for less than 4 minutes at room temperature of about 20° C. The samples were held in an incubator for about 4 hours to achieve cells attachment on the SiNWs. Thereafter, the ABZ drug with low concentrations of about 2.1 nano-moles per liter and the PTX drug with low concentrations of about 0.1 nano-moles per liter were added to individual samples. Finally, the signal recording and biological assays were investigated about 2 hours and 6 hours after the drug treatment (6 hours and 10 hours after the beginning of culturing process).
Referring to FIGS. 12A-12G, comparative normalized diagrams of impedance (designated by ΔZ% and represented by solid black lines) and capacitance changes (designated by ΔC% and represented by dashed grey lines) are illustrated for MCF-7 cells seeded on SiNW electrodes after treating by 2.1 nano-moles per liter of ABZ and 0.1 nano-moles per liter of PTX. The time interval between the drug incubation and the signal extraction are 2 hours (designated by T1) and 6 hours (designated by T2). In addition, the same diagrams are plotted for control sample prepared with no drug treatment stage.
According to the method described in the present example, the samples were maintained in an incubator so that the signal extraction was repeated 10 hours after cells dropping (6 hours after drug incubation for treated samples) to monitor the time evolution of drug induced MT polymerization/depolymerization on bioelectrical response of the membrane.

[1] = system: tubulin assemblies of MCF-7 cells; experiment: Confocal microscopy of tubulin assemblies of MCF-7 cells; format: cell-based, human; conditions: ABZ 2.1 nano-moles per liter, PTX 0.1 nano-moles per liter
Protocol: In addition, an un-treated control sample was prepared as reference for comparison. Then, samples were washed with PBS and permeabilized with microtubule stabilizing buffer [80 mM PIPES-KOH (pH 6.8), 5 mM EGTA, and 1 mM MgCl2 containing 0.5% Triton X-100] for 5 min at room temperature before being fixed with chilled absolute methanol for 10 min at −20° C. Thereafter, the fixed cells were washed and incubated with monoclonal mouse anti-α-tubulin antibody (Sigma Co.) for 1 hour at room temperature followed by incubation with FITC-conjugated antimouse IgG antibody (Santa Cruz Biotechnology). The stained cells were mounted with Vectashield (Vector Laboratories, Burlingame, Calif.) and observed by confocal microscopy.

[2] = between 2 hours (T1) and 6 hours (T2) after drug incubation

Row | SMILES | normalized capacitance change versus control sample (MCF-7 cells) | normalized impedance change versus control sample (MCF-7 cells) | change in electrical impedance with respect to control sample (MCF-7 cells) | norm of capacitive changes, control sample more than drug value (MCF-7 cells) | change of norm in impedance of treated cells, T1 vs. T2 (MCF-7 cells; [2]) | spindle / microtubule appearance in confocal image ([1]; MCF-7, 2 hours after treatment) | spindle / microtubule appearance in confocal image ([1]; MCF-7, 6 hours after treatment) | time dependent variation in capacitive behavior, T1 vs. T2 (MCF-7 cells; [2])
1 | CCCSc1ccc2nc(NC(=O)OC)[nH]c2c1 [ABZ, Albendazole] | 70% | 25% | about 90% | about 90% | about 60% | abnormally reduced numbers of spindles or monopolar (monoaster) spindles | still the monoastered MTs are observable | –
2 | CC(=O)O[C@H]1C(=O)[C@@]2(C)[C@H]([C@H](OC(=O)c3ccccc3)[C@]3(O)C[C@H](OC(=O)[C@H](O)[C@@H](NC(=O)c4ccccc4)c4ccccc4)C(C)=C1C3(C)C)[C@]1(OC(C)=O)CO[C@@H]1C[C@@H]2O [PTX, Paclitaxel] | about 60% | about 50% | about 30% | ~75% | 15% | aggregated spindles | increased aggregation in MT spindles is noticeable | about 85%
